Laboratory results published in paper PMC3523387 (Planta medica, 2012).

Target: T1, protein tyrosine phosphatase 1B (PTP1B) (Homo sapiens, UniProt P18031)
T1 sequence (P18031 1-435): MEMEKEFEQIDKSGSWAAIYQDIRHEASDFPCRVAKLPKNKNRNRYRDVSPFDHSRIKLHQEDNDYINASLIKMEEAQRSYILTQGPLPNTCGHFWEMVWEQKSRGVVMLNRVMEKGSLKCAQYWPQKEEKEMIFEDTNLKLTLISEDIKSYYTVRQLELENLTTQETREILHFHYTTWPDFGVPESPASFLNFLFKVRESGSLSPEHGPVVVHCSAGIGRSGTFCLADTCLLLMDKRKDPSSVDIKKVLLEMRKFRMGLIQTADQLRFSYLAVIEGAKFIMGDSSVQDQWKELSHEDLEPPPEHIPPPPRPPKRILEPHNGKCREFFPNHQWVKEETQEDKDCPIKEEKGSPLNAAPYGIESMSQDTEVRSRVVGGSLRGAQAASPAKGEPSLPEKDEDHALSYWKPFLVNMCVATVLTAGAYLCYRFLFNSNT
Assay: colorimetric pNPP hydrolysis assay with human recombinant PTP1B, dose-response
Assay type: biochemical

- IC50: 20.2 µM
Substance: ratanhiaphenol III [compound 9]
